Results on 27 compounds are retold here after patent US20240239781A1, “1H-PYRAZOLE DERIVATIVES AS SIGMA LIGANDS” (ACONDICIONAMIENTO TARRASENSE, priority 2021, published 2024).

One assay deals with T1, human σ1 receptor (Homo sapiens, UniProt Q99720).
T1 construct: expressed in transfected cells; host or cells: HEK-293
The assay can be described thus: Human σ1 receptor radioligand assay ([3H](+)-pentazocine, transfected HEK-293 membranes). Conditions: class scale, read-out: Binding σ-1 Ki. The procedure, abridged:
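Membranes (7 μg) from transfected HEK-293 cells were incubated with 5 nM [3H](+)-pentazocine in 50 mM Tris-HCl, pH 8, for 120 minutes at 37° C, with 10 μM haloperidol defining non-specific binding. Bound radioactivity was filtered and counted by scintillation. Results are % inhibition at 1 or 10 μM or Ki from five concentrations.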

The next assay concerns the target T2, human σ2/TMEM97 receptor (Homo sapiens, UniProt Q5BJF2).
T2 construct: expressed in transfected cells; host or cells: HEK-293
The assay can be described thus: Binding assay to human σ2/TMEM97 receptor ([3H]-DTG, transfected HEK-293 membranes). Conditions: class scale, read-out: Binding σ-2 Ki. A digest of the protocol:
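Membranes (15 μg) from transfected HEK-293 incubated 120 min at 25 °C with 10 nM [3H]-DTG in 50 mM Tris-HCl pH 8.0; nonspecific binding with 10 μM haloperidol. Filtration and scintillation counting; % inhibition at 1 or 10 μM, or Ki from five concentrations.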

T1 sequence (Q99720 whole entry): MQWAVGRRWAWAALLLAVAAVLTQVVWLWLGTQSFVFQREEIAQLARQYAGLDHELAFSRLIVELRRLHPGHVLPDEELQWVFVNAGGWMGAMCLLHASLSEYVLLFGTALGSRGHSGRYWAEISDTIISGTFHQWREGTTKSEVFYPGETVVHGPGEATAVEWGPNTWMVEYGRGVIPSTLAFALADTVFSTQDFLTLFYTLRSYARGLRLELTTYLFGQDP
T2 sequence (Q5BJF2 whole entry): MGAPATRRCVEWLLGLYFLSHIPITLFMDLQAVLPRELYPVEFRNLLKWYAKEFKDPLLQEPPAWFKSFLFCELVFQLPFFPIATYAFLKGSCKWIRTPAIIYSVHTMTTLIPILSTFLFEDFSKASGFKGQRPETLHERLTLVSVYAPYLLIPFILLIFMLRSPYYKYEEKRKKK

As for `Cc1cc(-c2nn(C)c(Cl)c2C(=O)N2CCCC3(CCN(Cc4ccc(F)c(F)c4)CC3)C2)no1` [Example 128, (5-Chloro-1-methyl-3-(5-methylisoxazol-3-yl)-1H-pyrazol-4-yl)(9-(3,4-difluorobenzyl)-2,9-diazaspiro[5.5]undecan-2-yl)methanone], the Ki is 100 to 500 nM on human σ1 receptor and less than 100 nM on human σ2/TMEM97 receptor.
Turning to `CCCN(CCC)CC1CCN(Cc2c(-c3cc(C)on3)nn(C)c2Cl)C1` (stereo not drawn) [Example 46, N-((1-((5-Chloro-1-methyl-3-(5-methylisoxazol-3-yl)-1H-pyrazol-4-yl)methyl)pyrrolidin-3-yl)methyl)-N-propylpropan-1-amine], the Ki on human σ1 receptor is 100 to 500 nM; at human σ2/TMEM97 receptor, more than 1000 nM.
In the same order, the values of `Cc1cc(-c2nn(C)c(Cl)c2C(=O)N2CCC3(CCN(Cc4ccccc4)CC3)CC2)no1` [Example 175, (9-Benzyl-3,9-diazaspiro[5.5]undecan-3-yl)(5-chloro-1-methyl-3-(5-methylisoxazol-3-yl)-1H-pyrazol-4-yl)methanone] are 500 to 1000 nM and less than 100 nM.
As to `Cc1cc(-c2nn(C)c(Cl)c2CN2CCC3(C2)CN(CCC(C)(C)C)C3)no1` [Example 52, 3-(5-Chloro-4-((2-(3,3-dimethylbutyl)-2,6-diazaspiro[3.4]octan-6-yl)methyl)-1-methyl-1H-pyrazol-3-yl)-5-methylisoxazole], the Ki on human σ1 receptor and on human σ2/TMEM97 receptor was less than 100 nM throughout.
For the compound `Cc1cc(-c2nn(C)c(Cl)c2CN2CCCCC(NCCN3CCCCC3)C2)no1` (stereo not drawn) [Example 79, 1-((5-Chloro-1-methyl-3-(5-methylisoxazol-3-yl)-1H-pyrazol-4-yl)methyl)-N-(2-(piperidin-1-yl)ethyl)azepan-3-amine], the results for the Ki on human σ1 receptor and on human σ2/TMEM97 receptor were more than 1000 nM and 100 to 500 nM, respectively.
Turning to `Cc1cc(-c2nn(C)c(Cl)c2CN2CCC3(CCN(Cc4ccccc4)CC3)CC2)no1` [Example 66, 3-(4-((9-Benzyl-3,9-diazaspiro[5.5]undecan-3-yl)methyl)-5-chloro-1-methyl-1H-pyrazol-3-yl)-5-methylisoxazole], the Ki at human σ1 receptor and at human σ2/TMEM97 receptor was less than 100 nM each time.
Take `CCn1nc(-c2cc(C)on2)c(C(=O)NC2CC3(CCN(CCC(C)(C)C)CC3)C2)c1Cl` [Example 127, 5-Chloro-N-(7-(3,3-dimethylbutyl)-7-azaspiro[3.5]nonan-2-yl)-1-ethyl-3-(5-methylisoxazol-3-yl)-1H-pyrazole-4-carboxamide]: the Ki on human σ1 receptor and at human σ2/TMEM97 receptor was less than 100 nM throughout.
With `Cc1cc(-c2nn(C)c(Cl)c2C(=O)NC2CCN(CCC(C)(C)C)CC2)no1` [Example 166, 5-Chloro-N-(1-(3,3-dimethylbutyl)piperidin-4-yl)-1-methyl-3-(5-methylisoxazol-3-yl)-1H-pyrazole-4-carboxamide], the Ki at human σ1 receptor was 100 to 500 nM; at human σ2/TMEM97 receptor, less than 100 nM.
In the case of `Cn1nc(-c2cccc(C(F)(F)F)n2)c(CC(=O)N2CCC3(CCN(CCC(C)(C)C)CC3)CC2)c1Cl` [Example 213, 2-(5-Chloro-1-methyl-3-(6-(trifluoromethyl)pyridin-2-yl)-1H-pyrazol-4-yl)-1-(9-(3,3-dimethylbutyl)-3,9-diazaspiro[5.5]undecan-3-yl)ethan-1-one], the Ki is 100 to 500 nM at human σ1 receptor and less than 100 nM at human σ2/TMEM97 receptor.
For the compound `Cc1cc(-c2nn(C)c(Cl)c2C(=O)N2CCCCC(NCc3ccccc3)C2)no1` (stereo not drawn) [Example 86, (3-(Benzylamino)azepan-1-yl)(5-chloro-1-methyl-3-(5-methylisoxazol-3-yl)-1H-pyrazol-4-yl)methanone], the inhibition constant (Ki) on human σ1 receptor was more than 1000 nM; at human σ2/TMEM97 receptor it was 100 to 500 nM.
The like results for `CCn1nc(-c2cc(C)on2)c(C(=O)N[C@H]2CC[C@@H](NCCC(C)(C)C)CC2)c1Cl` [Example 201, 5-Chloro-N-((1s,4s)-4-((3,3-dimethylbutyl)amino)cyclohexyl)-1-ethyl-3-(5-methylisoxazol-3-yl)-1H-pyrazole-4-carboxamide] were, in that order, 100 to 500 nM and 100 to 500 nM.
As to `CCn1nc(-c2ccon2)c(C(=O)NC2CCN(CCC(C)(C)C)CC2)c1Cl` [Example 163, 5-Chloro-N-(1-(3,3-dimethylbutyl)piperidin-4-yl)-1-ethyl-3-(isoxazol-3-yl)-1H-pyrazole-4-carboxamide], the Ki at human σ1 receptor is 100 to 500 nM; at human σ2/TMEM97 receptor, less than 100 nM.
For `Cc1cc(-c2nn(C)c(Cl)c2CN2CC[C@@H](CNCCC(C)(C)C)C2)no1` [Example 73, (S)-N-((1-((5-Chloro-1-methyl-3-(5-methylisoxazol-3-yl)-1H-pyrazol-4-yl)methyl)pyrrolidin-3-yl)methyl)-3,3-dimethylbutan-1-amine], the Ki on human σ1 receptor was 100 to 500 nM; at human σ2/TMEM97 receptor it was less than 100 nM.
Turning to `Cc1cc(-c2nn(C)c(Cl)c2CCN2CCCC[C@H](NCCC(C)C)C2)no1` [Example 119, (S)-1-(2-(5-Chloro-1-methyl-3-(5-methylisoxazol-3-yl)-1H-pyrazol-4-yl)ethyl)-N-isopentylazepan-3-amine], the figures for the Ki at human σ1 receptor and at human σ2/TMEM97 receptor were less than 100 nM and 100 to 500 nM, respectively.
As to `Cc1cc(-c2nn(C)c(Cl)c2C(=O)N2CCCC(CN(C)CCC(C)(C)C)C2)no1` (stereo not drawn) [Example 121, (5-Chloro-1-methyl-3-(5-methylisoxazol-3-yl)-1H-pyrazol-4-yl)(3-(((3,3-dimethylbutyl)(methyl)amino)methyl)piperidin-1-yl)methanone], the Ki on human σ1 receptor and at human σ2/TMEM97 receptor was 100 to 500 nM in each case.
As to `COc1ccc(-c2nn(C)c(Cl)c2CN2CCCCC(NCCC(C)C)C2)nc1` (stereo not drawn) [Example 36, 1-((5-Chloro-3-(5-methoxypyridin-2-yl)-1-methyl-1H-pyrazol-4-yl)methyl)-N-isopentylazepan-3-amine], the Ki on human σ1 receptor is 500 to 1000 nM; on human σ2/TMEM97 receptor, more than 1000 nM.
As for `Cc1cc(-c2nn(C)c(Cl)c2C(=O)N2CCC3(CCN(Cc4ccc(F)c(F)c4)CC3)CC2)no1` [Example 130, (5-Chloro-1-methyl-3-(5-methylisoxazol-3-yl)-1H-pyrazol-4-yl)(9-(3,4-difluorobenzyl)-3,9-diazaspiro[5.5]undecan-3-yl)methanone], the results for the Ki at human σ1 receptor and at human σ2/TMEM97 receptor were 500 to 1000 nM and 100 to 500 nM, respectively.
On to `CCn1nc(-c2cnn(C(C)C)c2)c(C(=O)N2CCC3(CCN(CCC(C)(C)C)CC3)CC2)c1Cl` [Example 198, (5-Chloro-1-ethyl-1′-isopropyl-1H,1′H-[3,4′-bipyrazol]-4-yl)(9-(3,3-dimethylbutyl)-3,9-diazaspiro[5.5]undecan-3-yl)methanone], for which the results for the Ki on human σ1 receptor and on human σ2/TMEM97 receptor were 500 to 1000 nM and less than 100 nM, respectively.
On to `CC(C)CCNC1CCCCN(Cc2c(-c3cccc(O)n3)nn(C)c2Cl)C1` (stereo not drawn) [Example 39, 6-(5-Chloro-4-((3-(isopentylamino)azepan-1-yl)methyl)-1-methyl-1H-pyrazol-3-yl)pyridin-2-ol], for which the Ki on human σ1 receptor is 500 to 1000 nM; on human σ2/TMEM97 receptor it was 100 to 500 nM.
`CCn1nc(-c2cc(C)on2)c(C(=O)N[C@H]2CCN(CCC(C)(C)C)C2)c1Cl` [Example 164, (S)-5-Chloro-N-(1-(3,3-dimethylbutyl)pyrrolidin-3-yl)-1-ethyl-3-(5-methylisoxazol-3-yl)-1H-pyrazole-4-carboxamide]: the Ki was less than 100 nM on human σ1 receptor and 100 to 500 nM at human σ2/TMEM97 receptor.
Turning to `CCn1nc(-c2cccc(C(F)(F)F)n2)c(C(=O)NC2CCN(CCC(C)(C)C)CC2)c1Cl` [Example 161, 5-Chloro-N-(1-(3,3-dimethylbutyl)piperidin-4-yl)-1-ethyl-3-(6-(trifluoromethyl)pyridin-2-yl)-1H-pyrazole-4-carboxamide], the Ki on human σ1 receptor and at human σ2/TMEM97 receptor was less than 100 nM throughout.
On to `Cc1cc(-c2nn(C)c(Cl)c2CN2CCC3(C2)CN(Cc2ccccc2)C3)no1` [Example 60, 3-(4-((2-Benzyl-2,6-diazaspiro[3.4]octan-6-yl)methyl)-5-chloro-1-methyl-1H-pyrazol-3-yl)-5-methylisoxazole], for which the inhibition constant (Ki) on human σ1 receptor is less than 100 nM; at human σ2/TMEM97 receptor it was 100 to 500 nM.
Take `Cc1cc(-c2nn(C)c(Cl)c2CN2CCCCC(CNCCC(C)C)C2)no1` (stereo not drawn) [Example 59, N-((1-((5-Chloro-1-methyl-3-(5-methylisoxazol-3-yl)-1H-pyrazol-4-yl)methyl)azepan-3-yl)methyl)-3-methylbutan-1-amine]: the Ki on human σ1 receptor lay in the range of 500 to 1000 nM; at human σ2/TMEM97 receptor, 100 to 500 nM.
For the compound `Cc1cccc(-c2nn(C)c(Cl)c2C(=O)NC2CCC3(CC2)CCN(CCC(C)(C)C)CC3)n1` [Example 148, 5-Chloro-N-(3-(3,3-dimethylbutyl)-3-azaspiro[5.5]undecan-9-yl)-1-methyl-3-(6-methylpyridin-2-yl)-1H-pyrazole-4-carboxamide], the Ki at human σ1 receptor and on human σ2/TMEM97 receptor was less than 100 nM throughout.
For the compound `CCn1nc(-c2ccon2)c(C(=O)NC2CCC3(CC2)CCN(CCC(C)(C)C)CC3)c1Cl` [Example 142, 5-Chloro-N-(3-(3,3-dimethylbutyl)-3-azaspiro[5.5]undecan-9-yl)-1-ethyl-3-(isoxazol-3-yl)-1H-pyrazole-4-carboxamide], the Ki on human σ1 receptor and at human σ2/TMEM97 receptor was less than 100 nM throughout.
Take `CCn1nc(-c2cc(C)on2)c(C(=O)N2CCCC3(CN(CCC(C)(C)C)C3)C2)c1Cl` [Example 194, (5-Chloro-1-ethyl-3-(5-methylisoxazol-3-yl)-1H-pyrazol-4-yl)(2-(3,3-dimethylbutyl)-2,6-diazaspiro[3.5]nonan-6-yl)methanone]: the Ki on human σ1 receptor was 500 to 1000 nM; at human σ2/TMEM97 receptor, less than 100 nM.
The like results for `Cc1conc1-c1nn(C)c(Cl)c1CN1CCCCC(NCCC(C)C)C1` (stereo not drawn) [Example 28, 1-((5-Chloro-1-methyl-3-(4-methylisoxazol-3-yl)-1H-pyrazol-4-yl)methyl)-N-isopentylazepan-3-amine] were, in that order, 100 to 500 nM and 100 to 500 nM.
